Test results from US20250092036A1, “COMPOUNDS AND COMPOSITIONS FOR MODULATING THE ACTIVITY OF ERK” (Novartis AG, priority 2023, published 2025).
Read-outs that look alike come from different tables or passages of the source.

Columns and labels:
[1] = biological target: T1, nanobit-large-bit-ERK2 and nanobit-small-bit-PEA15 in WM793 cells (Homo sapiens, UniProt P28482); assay: NanoBiT assay; type: cell-based; conditions: WM793 nanobit stable cell line, overnight incubation; read-out: NanoBiT qualified absolute AC50
T1 construct: expressed in transfected cells
Description: (§1) Cancer cell media was prepared by adding 500 mL of RPMI (ThermoFisher cat ##22400-089) and 10% Fetal Bovine Serum (Gibco) for WM793 cells (ATCC Cat #CRL-2806, RRID: CVCL 8787) and F12K (Thermo Fisher cat #21127-022, 500 mL; or 21127-030, 10×500 mL)+10% FBS for PC3 (ATCC CRL-1435) cells. The entire media with supplements was filter sterilized through a 0.4 μm bottle top filter system. Cancer cell lines were detached from traditional cell culture flasks by washing three times with 1×PBS and adding an appropriate amount of 0.25% TrypLE™ Express Enzyme (1×), no phenol red (ThermoFisher cat #12604013) to create a thin layer over the cells. Trypsin was neutralized with media containing serum and proceeded to count the cells.
A nanobit stable cell line was generated using WM793 cells with nanobit-large-bit-ERK2 and nanobit-small-bit-PEA15. […] In a biological safety cabinet, cells were seeded using a sterilized small stainless steel tipped cassette on a Multi-drop Combi. Between different cell lines, the tubing of the cassette was flushed with 1× sterile PBS for 10 s. Alternatively, cells can be seeded using a Multi-flow located within a Hepa filtered robotics room using either a sterilized small sapphire jewel tipped cassette and the peristatic pump, or the attached syringe pump, depending on volume of plates per cell line needed. The plates were placed in an incubator set at 37° C., with 5% CO2 and 95% relative humidity. A 10-point, 3-fold serial dilution of compounds was prepared in 100% DMSO on a liquid handling robot with a 10 mM top concentration. 90 nl/well was dispensed in three assay plates/1 compound source plate, with the highest concentration at 30 μM. After addition of compound was complete, the plates were placed into an incubator at 37° C., with 5% CO2 and 95% relative humidity for overnight. Luminescence was captured on a plate luminometer such as an Envision or View Lux to measure Day 0 time point both select cell lines. LUM plus, gain 3500, 0.1 s and focal height 12.5 [mm] on PheraStar reader. The raw data was extracted from the instrument and normalized all fields containing test compounds to the average of all wells containing DMSO alone as neutral control. From this value, the percent growth inhibition was calculated for each compound. Dose response curves and inhibitory IC50s were generated by graphing the normalized data values against the compound concentration using either a program such as GraphPad™ or Excel Fit.

[2] = biological target: T2, ERK2[2-360(p-T185/p-Y187)]-Avi (Homo sapiens, UniProt P28482); assay: Biochemical assay (HTRF competition assay); type: binding; conditions: HTRF competition with Example 15 probe, overnight at RT; read-out: Biochemical qualified AC50
T2 construct: 400 pM ERK2[2-360(p-T185/p-Y187)]-Avi was added to the plate
Description: The competition assays were performed at RT in a 384-well white polystyrene, flat bottom plate (Greiner #784075) using a final reaction volume of 15 μL and the following assay buffer conditions: 50 mM MOPS, pH 7.2, 10 mM MgCl2, 0.5 mM TCEP, 0.01% Triton-X-100. 75 nL of a 10 mM compound solution in DMSO or 100% DMSO (12 point titration, final concentration: 50 μM-300 pM; final DMSO: 0.5%) was added using an acoustic liquid handler (Echo, Beckman Coulter) to wells containing 7.5 μL of 1-(6-((R)-3-(1-(5-chloro-1-((tetrahydro-2H-pyran-4-yl)methyl)-1H-indole-3-carbonyl)-4-(4-fluorophenyl)piperidine-4-carboxamido)pyrrolidin-1-yl)-6-oxohexyl)-3,3-dimethyl-5-sulfo-2-((1E,3E)-5-((E)-1,3,3-trimethyl-5-sulfoindolin-2-ylidene)penta-1,3-dien-1-yl)-3H-indol-1-ium (Example 15); 7.5 μL 400 pM SA-Tb (Cisbio, 610SATLB) and 400 pM ERK2[2-360(p-T185/p-Y187)]-Avi was added to the plate and incubated overnight at RT. HTRF signal was measured using a microplate reader (PheraStar, BMG Labtech) with excitation and emission wavelengths of […], respectively. The inhibitor dose-response curves were analyzed from the HTRF ratio signal using normalized IC50 regression curve fitting with control-based normalization.

WM793 cells = assay: Cell proliferation assay (CellTiter-Glo); type: cell-based; conditions: 3 d, read-out: Cell proliferation qualified AC50
Description: as §1
After counting the cells, the concentration of the cell solution was adjusted to seed a total of 750 cells per well in 50 μL of complete media into 384-well tissue culture treated plates. In a biological safety cabinet, cells were seeded using a sterilized small stainless steel tipped cassette on a Multi-drop Combi. Between different cell lines, the tubing of the cassette was flushed with 1× sterile PBS for 10 seconds. Alternatively, cells can be seeded using a Multi-flow located within a Hepa filtered robotics room using either a sterilized small sapphire jewel tipped cassette and the peristatic pump, or the attached syringe pump, depending on volume of plates per cell line needed. The plates were placed in an incubator set at 37° C., with 5% CO2 and 95% relative humidity. A 10-point, 3-fold serial dilutions of compounds in 100% DMSO was prepared on a liquid handling robot with a 10 mM top concentration. 100 nL/well in three assay plates/1 compound was dispensed to source plate, with the highest concentration at 20 μM. After addition of compound was complete, plates were placed into an incubator at 37° C., with 5% CO2 and 95% relative humidity for 3 d. An adequate volume of CellTiter-Glo® (Promega #G7571) detection reagent was pre-warmed to RT or in a 37° C. H2O bath. 25 μL of the reagent was added to each well using either a Multi-drop Combi or MultiFlo and incubate at RT for at least 15 min. Luminesce was captured on a plate luminometer such as an Envision or View Lux to measure Day 0 time point both select cell lines. LUM plus, gain 3500, 0.1 s and focal height 12.5 mm on PheraStar reader. At Day 3, an adequate volume of CellTiter-Glo® detection reagent was pre-warmed at RT or in a 37° C. H2O bath. A total of 25 μL of the reagent was added to each well using either a Multi-drop Combi or MultiFlo and incubate at RT for at least 15 min. Luminesce was captured on a plate luminometer such as an Envision or View Lux to measure Day 3 time point both select cell lines. LUM plus, gain 3500, 0.1 s and focal height 12.5 mm on PheraStar reader. Raw data was extracted from the instrument and all fields containing test compounds were normalized to the average of all wells containing DMSO alone from Day 3 as neutral control and Day 0 starting numbers. From this value, percent growth inhibition of each compound was calculated. Dose response curves and growth inhibitory IC50s were generated by graphing the normalized data values against the compound concentration using a program such as GraphPad™ or Excel Fit.

T1 sequence (P28482 whole entry): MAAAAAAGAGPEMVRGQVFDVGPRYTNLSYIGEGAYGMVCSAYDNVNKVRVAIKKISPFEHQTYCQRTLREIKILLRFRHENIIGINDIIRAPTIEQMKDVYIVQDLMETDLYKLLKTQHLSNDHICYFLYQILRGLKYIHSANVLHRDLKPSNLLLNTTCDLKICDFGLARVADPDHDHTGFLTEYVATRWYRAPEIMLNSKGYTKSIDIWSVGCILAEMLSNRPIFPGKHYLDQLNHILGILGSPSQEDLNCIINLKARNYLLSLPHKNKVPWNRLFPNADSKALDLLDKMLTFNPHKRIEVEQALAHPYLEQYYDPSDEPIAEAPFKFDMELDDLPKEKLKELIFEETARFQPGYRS
T2 sequence (P28482 2-360 limits assumed): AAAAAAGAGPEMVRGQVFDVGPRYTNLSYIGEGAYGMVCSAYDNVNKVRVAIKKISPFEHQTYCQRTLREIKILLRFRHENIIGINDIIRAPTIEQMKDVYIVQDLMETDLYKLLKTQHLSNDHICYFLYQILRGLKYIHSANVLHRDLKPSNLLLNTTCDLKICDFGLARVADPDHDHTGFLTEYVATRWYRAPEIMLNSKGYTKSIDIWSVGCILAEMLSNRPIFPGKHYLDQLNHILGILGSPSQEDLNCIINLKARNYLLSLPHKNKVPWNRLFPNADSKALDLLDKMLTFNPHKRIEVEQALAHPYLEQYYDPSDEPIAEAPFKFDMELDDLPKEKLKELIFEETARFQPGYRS

SMILES	AC50 [1] [nM]	AC50 [2] [nM]	AC50 (WM793 cells; Homo sapiens, WM793, 72 h) [nM]	AC50 (WM793 cells) [nM]
CCO[C@H]1CC[C@H](Cc2c(C)n(C(=O)N3CC[C@@](C(=O)N[C@H]4CC[C@H](C(=O)O)C[C@@H]4C)(c4ccc(F)cc4)C[C@@H]3C)c3cc(F)ccc23)OC1 (mixture of isomers) [Example 8, (1S,3S,4S)-4-((2S,4S)-1-(3-((trans-5-ethoxytetrahydro-2H-pyran-2-yl)methyl)-6-fluoro-2-methyl-1H-indole-1-carbonyl)-4-(4-fluorophenyl)-2-methylpiperidine-4-carboxamido)-3-methylcyclohexane-1-carboxylic acid]	31	< 0.28	15	–
C[C@H]1C[C@@H](C(=O)O)CC[C@@H]1NC(=O)[C@@]1(c2ccc(F)cc2)CCN(C(=O)n2c3c(c4ccc(F)cc42)C(C2CCOCC2)OCC3)[C@@H](C)C1 (single isomer, unassigned) [Example 10]	280	< 0.28	40	–
Cc1c(C[C@H]2CC[C@H](OC(C)C)CC2)c2ccc(F)cc2n1C(=O)N1CCC(C(=O)N[C@H]2CC[C@H](C(=O)O)C[C@@H]2C)(c2ccc(F)cc2)CC1 [Example 1, (1S,3S,4S)-4-(1-(6-fluoro-3-(((1r,4S)-4-isopropoxycyclohexyl)methyl)-2-methyl-1H-indole-1-carbonyl)-4-(4-fluorophenyl)piperidine-4-carboxamido)-3-methylcyclohexane-1-carboxylic acid]	100	0.33	–	110
CCc1c(C[C@H]2CC[C@H](OC3CCOCC3)CC2)c2ccc(F)cc2n1C(=O)N1CC[C@@](C(=O)N[C@H]2CC[C@H](C(=O)O)C[C@@H]2C)(c2ccc(F)c(F)c2)C[C@@H]1C [Example 1a]	160	< 0.28	10	–
CO[C@H]1CC[C@H](Cc2c(C)n(C(=O)N3CCC(C(=O)N[C@H]4CC[C@H](C(=O)O)CC4)(c4ccc(F)cc4)CC3)c3cc(F)ccc23)CC1 [Example 1c]	390	1.3	940	–
CCc1c(C[C@H]2CC[C@H](OC3CCOCC3)CC2)c2ccc(F)cc2n1C(=O)N1CCC(C(=O)N[C@H]2C[C@H](C(=O)O)C[C@@H]2C)(c2ccc(F)cc2)CC1 [Example 1d]	300	< 0.28	110	–
CN1CC[C@@H](NC(=O)C2(c3ccccc3)CCN(C(=O)c3c(C=O)n(CC4CCOCC4)c4ccc(Cl)cc34)CC2)C1 [Example 11a]	–	0.87	300	–
C[C@H]1[C@@H](NC(=O)C2(c3ccc(F)cc3)CCN(C(=O)c3c(C=O)n(CC4CCOCC4)c4ccc(Cl)cc34)CC2)CN1C [Example 11c]	–	–	17	–
CN1CCC(NC(=O)C2(c3ccc(F)cc3)CCN(C(=O)c3c(C=O)n(CC4CCOCC4)c4ccc(Cl)cc34)CC2)CC1 [Example 11d]	–	–	430	–
CN1CC(NC(=O)C2(c3ccc(F)cc3)CCN(C(=O)c3c(C=O)n(CC4CCOCC4)c4ccc(Cl)cc34)CC2)C1 [Example 11e]	–	–	290	–
CN1CC[C@@H](NC(=O)C2(c3ccc(F)cc3)CCN(C(=O)c3c(C=O)n(CC4CCOCC4)c4ccc(Cl)cc34)CC2)C1 [Example 11f]	–	–	140	–
CN1C[C@@H](F)[C@@H](NC(=O)C2(c3ccc(F)cc3)CCN(C(=O)c3c(C(F)F)n(CC4CCOCC4)c4ccc(Cl)cc34)CC2)C1 [Example 11i]	–	0.72	54	–
CN1C[C@@H](F)[C@@H](NC(=O)C2(c3ccc(F)cc3)CCN(C(=O)c3c(C#N)n(CC4CCOCC4)c4ccc(Cl)cc34)CC2)C1 [Example 11j]	–	0.97	730	–
O=Cc1c(C(=O)N2CCC(C(=O)N[C@H]3CNC[C@H]3F)(c3ccc(F)cc3)CC2)c2cc(Cl)ccc2n1CC1CCOCC1 [Example 14, 1-(5-chloro-2-formyl-1-((tetrahydro-2H-pyran-4-yl)methyl)-1H-indole-3-carbonyl)-4-(4-fluorophenyl)-N-((3S,4R)-4-fluoropyrrolidin-3-yl)piperidine-4-carboxamide]	–	0.48	120	–

More lines, main results first:

AC50 [1] [nM]	AC50 [2] [nM]	SMILES	AC50 (WM793 cells; Homo sapiens, WM793, 72 h) [nM]	AC50 (WM793 cells) [nM]
24	0.87	C[C@H]1C[C@@H](C(=O)O)CC[C@@H]1NC(=O)[C@@]1(c2ccc(F)cc2)CCN(C(=O)N2CC([C@H]3CC[C@H](OC4CCOCC4)CC3)c3ccc(F)cc32)[C@@H](C)C1 (single isomer, unassigned) [Example 4a]	4	–
1200	3.9	CC(C)O[C@H]1CC[C@H](C2CN(C(=O)N3CC[C@@](C(=O)N[C@H]4CC[C@H](C(=O)O)C[C@@H]4C)(c4ccc(F)cc4)C[C@@H]3C)c3cc(F)ccc32)CC1 (single isomer, unassigned) [Example 4c]	410	–
28	< 0.28	CCOC1CCC(Cc2c(C)n(C(=O)N3CC[C@@](C(=O)N[C@H]4CC[C@H](C(=O)O)C[C@@H]4C)(c4ccc(F)cc4)C[C@@H]3C)c3cc(F)ccc23)OC1 (single isomer, unassigned) [Example 8a]	13	–
88	0.35	C[C@H]1C[C@@H](C(=O)O)CC[C@@H]1NC(=O)C1(c2ccc(F)cc2)CCN(C(=O)n2c3c(c4ccc(F)cc42)[C@H](c2ccccc2)OCC3)CC1 (single isomer, unassigned) [Example 10a]	77	–
12000	37	C[C@H]1C[C@@H](C(=O)O)CC[C@@H]1NC(=O)C1(c2ccc(F)cc2)CCN(C(=O)n2c3c(c4ccc(F)cc42)[C@@H](c2ccccc2)OCC3)CC1 (single isomer, unassigned) [Example 10b]	10000	–
